Assay results published in patent US20200221739A1, “METHOD FOR REMOVAL OF ANTIBIOTIC RESIDUES FROM FOOD PRODUCTS” (The King Abdulaziz City for Science and Technology, priority 2016, published 2020).

Legend:
[1] = Removal of amoxicillin spiked in water, milk, eggs and chicken meat by gamma radiation, HPLC; format: physicochemical; conditions: for Removal percentage: 7 kGy, average across 1, 10, 20 and 50 |iM, assuming 15% error
Excerpt: In all the example mentioned in the foregoing, the source of gamma radiation is a Cobalt-60 gamma rays source model Gamma Cell 220 from MDS Nordion, Canada. The source of gamma radiation was calibrated using aqueous ferrous sulfate (Fricke dosimetry) solution.
The desired concentration of amoxicillin was spiked in water, milk, eggs, and chicken meat. 20 |iL of spiked water samples before and post irradiation treatment was directly injected in HPLC. Amoxicillin spiked in milk, eggs, and chicken meat was extracted using acetonitrile. 2 mL (milk or eggs) or 2 g (chicken meat) of the spiked samples was mixed with 5 mL acetonitrile and shaken for 10 minutes following which the samples were centrifuged for 5 minutes at a speed of 3000 rpm. 5 mL of the supernatant was evaporated in a rotary-evaporation system and the antibiotic residue was dissolved in 2 mL of double distilled water. 20 |iL of the extracted samples was injected in HPLC.
Direct Uv-Vis measurements cannot be conducted to quantify the antibiotics in samples extracted from dairy or poultry products due to the significant chemical interference. FIG. 5 illustrates a comparison of HPLC signals of a range of amoxicillin concentration before and after irradiation with 7 kGy.
Removal percentage of amoxicillin in different samples with varied concentrations is reported by comparing the original concentrations with the corresponding post irradiation concentrations (i.e. before and after irradiation). FIG. 9 illustrates the average removal percentages for each sample type across the different concentration range (1, 10, 20, and 50 |iM), assuming 15% error in the observations. It was observed that there was 100% removal and decomposition of amoxicillin in water & milk samples and 80% removal of amoxicillin in eggs & chicken meat samples at a radiation dose of 7 kGy, within the permissible limits accepted by IAEA for food irradiation.

[2] = Degradation of amoxicillin by gamma radiation, 1H and 13C NMR; format: physicochemical; conditions: 5 mg/mL in water/D2O 1:1, 7 kGy
Description: Further, an additional confirmation of the degradation of amoxicillin was conducted using ^1H and ^13C NMR studies. Amoxicillin is dissolved in water and diluted at a ratio of 1:1 using D2O. A high concentration of amoxicillin (5 mg/mL) was used for this technique, with water as the NMR solvent. […] It is observed that the proton signals (at 4.5 to 4.8 ppm) of amoxicillin before irradiation are disappearing upon irradiation treatment. FIG. 11 illustrates the ^13C spectra of 5 mg/mL amoxicillin before and after irradiation treatment at 7 kGy for amoxicillin. Overall, the intensities of ^13C peaks are reduced (approximately 50%) after irradiation treatment indicating the decomposition and reduction in amoxicillin concentration in the sample.

[3] = Degradation of antibiotics in double distilled water by gamma radiation, UV-Vis absorption; format: physicochemical; conditions: 50 |iM in double distilled water, 7 kGy gamma radiation
Description: The three target antibiotics as mentioned above were dissolved in double distilled water to make desired concentrations (in 10 mL volume). […] UV-Vis absorption spectra of the studied antibiotics in solution were recorded before and after irradiation treatment at different doses.
With reference to FIG. 2A, the maximum absorption of doxycycline at 275 nm was plotted against the concentration.

E-coli = E-coli growth inhibition experiments; format: cell-based
Description: With reference to FIG. 12 (top panel), two control experiments with water were conducted.

SMILES: CC1(C)S[C@@H]2[C@H](NC(=O)[C@H](N)c3ccc(O)cc3)C(=O)N2[C@H]1C(=O)O [amoxicillin]
- Removal percentage ([1]; chicken meat samples): 80%
- Removal percentage ([1]; eggs samples): 80%
- Removal percentage ([1]; milk samples): 100%
- Concentration of amoxicillin after irradiation (HPLC) ([1]; range of concentrations, after irradiation with 7 kGy): below the detection limit of HPLC
- Removal percentage ([1]; water samples): 100%
- Reduction of intensities of 13C peaks after irradiation treatment [2]: approximately 50%
- Removal (decrease of UV-Vis absorption bands) upon gamma irradiation [3]: completely removed
- Antimicrobial effect on E-coli growth (E-coli; amoxicillin 150 |iM irradiated at 7 kGy): complete loss of antimicrobial effect
- Antimicrobial effect on E-coli growth (E-coli; non-irradiated amoxicillin sample): growth inhibition
